Consider 11 molecules from patent US7781436B2 (Hoffmann-La Roche Inc., priority 2005, dated 2010).

The Ki is the equilibrium dissociation constant of an inhibitor or competing ligand from its target.

For the first assay, the target named is T1, human V1a receptor (Homo sapiens, UniProt P37288).
T1 construct: expressed in transfected cells; host or cells: HEK293 cells, transiently transfected; membranes prepared
T1 sequence (P37288 whole entry): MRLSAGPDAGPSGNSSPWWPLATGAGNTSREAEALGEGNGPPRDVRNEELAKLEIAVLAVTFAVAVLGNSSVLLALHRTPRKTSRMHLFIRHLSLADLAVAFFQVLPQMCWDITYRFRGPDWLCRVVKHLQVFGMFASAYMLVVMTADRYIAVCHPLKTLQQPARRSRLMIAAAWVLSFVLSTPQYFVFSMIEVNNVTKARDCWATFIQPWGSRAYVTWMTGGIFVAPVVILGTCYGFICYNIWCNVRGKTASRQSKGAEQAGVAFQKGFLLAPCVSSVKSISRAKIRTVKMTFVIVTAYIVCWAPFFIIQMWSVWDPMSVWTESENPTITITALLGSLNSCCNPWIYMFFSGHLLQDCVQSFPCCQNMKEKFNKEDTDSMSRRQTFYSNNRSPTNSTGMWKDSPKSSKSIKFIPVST
The experiment in a line: human V1a receptor binding (3H-Vasopressin SPA, membranes of transfected HEK293 cells).
Conditions: not given
Here is the method:
The human V1a receptor was cloned by RT-PCR from total human liver RNA. The coding sequence was subcloned in an expression vector after sequencing to confirm the identity of the amplified sequence. […] Cell membranes were prepared from HEK293 cells transiently transfected with the expression vector and grown in 20 liter fermenters with the following protocol.
50 g of cells are resuspended in 30 ml freshly prepared ice cold Lysis buffer (50 mM HEPES, 1 mM EDTA, 10 mM MgCl2 adjusted to pH=7.4+ complete cocktail of protease inhibitor (Roche Diagnostics)). Homogenized with Polytron for 1 min and sonicated on ice for 2×2 minutes at 80% intensity (Vibracell sonicator). The preparation is centrifuged 20 min at 500 g at 4° C., the pellet is discarded and the supernatant centrifuged 1 hour at 43,000 g at 4° C. (19'000 rpm). The pellet is resuspended in 12.5 ml Lysis buffer+12.5 ml Sucrose 20% and homogenized using a Polytron for 1-2 min. The protein concentration is determined by the Bradford method, and aliquots are stored at −80° C. until use. For binding studies 60 mg Yttrium silicate SPA beads (Amersham) are mixed with an aliquot of membrane in binding buffer (50 mM Tris, 120 mM NaCl, 5 mM KCl, 2 mM CaCl2, 10 mM MgCl2) for 15 minutes with mixing. 50 ul of bead/membrane mixture is then added to each well of a 96 well plate, followed by 50 ul of 4 nM 3H-Vasopressin (American Radiolabeled Chemicals). For total binding measurement 100 ul of binding buffer are added to the respective wells, for non-specific binding 100 ul of […] cold vasopressin and for compound testing 100 ul of a serial dilution of each compound in 2% DMSO. The plate is incubated 1 h at room temperature, centrifuged 1 min at 1000 g and counted on a Packard Top-Count. Non-specific binding counts are subtracted from each well, and data is normalized to the maximum specific binding set at 100%. To calculate an IC 50 the curve is fitted using a non-linear regression model (XLfit) and the Ki is calculated using the Cheng-Prussoff equation.
The molecule `CN1CCC[C@H]1Cn1cc(C(=O)N2CCN(c3ccccc3F)CC2)c2ccc(Cl)cc21` [Example 203, [6-Chloro-1-((S)-1-methyl-pyrrolidin-2-ylmethyl)-1H-indol-3-yl]-[4-(2-fluoro-phenyl)-piperazin-1-yl]-methanone] registered an inhibition constant (Ki) of 2 nM.

`CN(C)C(=O)Cn1cc(C(=O)N2CCN(c3ccc(F)cc3F)CC2)c2ccc(Cl)cc21` [Example 205, 2-{6-Chloro-3-[4-(2,4-difluoro-phenyl)-piperazine-1-carbonyl]-indol-1-yl}-N,N-dimethyl-acetamide] yielded a Ki of 10 nM.

On to `O=C(c1cn(C[C@H]2CCCN2)c2cc(Cl)ccc12)N1CCN(c2ccccc2F)CC1` [Example 214, (6-Chloro-1-(R)-1-pyrrolidin-2-ylmethyl-1H-indol-3-yl)-[4-(2-fluoro-phenyl)-piperazin-1-yl]-methanone], for which the affinity corresponds to a Ki of 16 nM.

For the molecule `CN1CCC[C@@H]1Cn1cc(C(=O)N2CCN(c3ccccc3F)CC2)c2ccc(Cl)cc21` [Example 215, [6-Chloro-1-((R)-1-methyl-pyrrolidin-2-ylmethyl)-1H-indol-3-yl]-[4-(2-fluoro-phenyl)-piperazin-1-yl]-methanone], the affinity corresponds to a Ki of 6 nM.

On to `CC(=O)NCCn1cc(C(=O)N2CCN(c3ccccc3F)CC2)c2ccc(Cl)cc21` [Example 217, N-(2-{6-Chloro-3-[4-(2-fluoro-phenyl)-piperazine-1-carbonyl]-indol-1-yl}-ethyl)-acetamide], for which the Ki was found to be 21 nM.

As for `CC(=O)N(C)CCn1cc(C(=O)N2CCN(c3ccccc3F)CC2)c2ccc(Cl)cc21` [Example 219, N-(2-{6-Chloro-3-[4-(2-fluoro-phenyl)-piperazine-1-carbonyl]-indol-1-yl}-ethyl)-N-methyl-acetamide], the Ki turned out to be 15 nM.

Turning to `CN(CCn1cc(C(=O)N2CCN(c3ccccc3F)CC2)c2ccc(Cl)cc21)S(C)(=O)=O` [Example 220], the Ki was found to be 17 nM.

Regarding `CNC(=O)Cn1cc(C(=O)N2CCN(c3nccc4sccc34)CC2)c2ccc(Cl)cc21` [Example 224, 2-[6-Chloro-3-(4-thieno[3,2-c]pyridin-4-yl-piperazine-1-carbonyl)-indol-1-yl]-N-methyl-acetamide], affinity was put at a Ki of 27 nM.

The assay is the same for the next values; noted with them: displacement of 4 nM 3H-Vasopressin, HEK293 cell membranes, Ki by Cheng-Prussoff from IC50; read-out: Ki.
Take `CN(C)C(=O)Cn1cc(C(=O)N2CCN(c3ncccc3C(F)(F)F)CC2)c2ccc(Cl)cc21` [Example 211, 2-{6-Chloro-3-[4-(3-trifluoromethyl-pyridin-2-yl)-piperazine-1-carbonyl]-indol-1-yl}-N,N-dimethyl-acetamide]: the inhibition constant (Ki) was 13 nM.

`CS(=O)(=O)NCCn1cc(C(=O)N2CCN(c3ccccc3F)CC2)c2ccc(Cl)cc21` [Example 218, N-(2-{6-Chloro-3-[4-(2-fluoro-phenyl)-piperazine-1-carbonyl]-indol-1-yl}-ethyl)-methanesulfonamide]: the Ki turned out to be 16 nM.

For the molecule `CNC(=O)Cn1cc(C(=O)N2CCN(c3ncccc3I)CC2)c2ccc(Cl)cc21` [Example 225, 2-{6-Chloro-3-[4-(3-iodo-pyridin-2-yl)-piperazine-1-carbonyl]-indol-1-yl}-N-methyl-acetamide], the Ki turned out to be 12 nM.
